Measured values: patent US4886517A, “Dyeing composition for human hair containing an azo dye” (L'Oreal, priority 1985, dated 1989)

How the values were obtained:
[1] = Dye fastness on hair, fastness to washing/shampooing; set-up: species or system human; settings: compared to nitro benzene dyes
Salmonella strains = test: Ames test (mutagenicity); format: biochemical
[2] = Solubility in 96° ethanol at 25° C.; format: physicochemical
Text: The compound of formula (II) also has the advantage of having a good solubility in the usual dye carriers.

SMILES	stability to washing [1]	mutagenicity (Ames test) (Salmonella strains; five strains of the Salmonella type, in the presence of a S-9 Mix microsomal activator)	solubility [2] [%]	non-mutagenicity (Salmonella strains; strains and activation not stated for this compound)
Nc1ccc(N=Nc2ccc(N(CCO)CCO)cc2)cc1 [(I)]	improved stability to washing	mutagenic to five strains of the Salmonella type	1.3	–
Cc1cc(N(CCO)CCO)ccc1N=Nc1ccc(N)cc1 [(II)]	–	–	5.3	non-mutagenicity has been demonstrated
